Laboratory results taken from ChEMBL document CHEMBL1201862, “PubChem BioAssay data set” (2004).
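Growth conditions: 96-well plates. Treatment: test compound, 48 hours, 5 concentrations. Analysis: linear interpolation between bracketing concentrations; unreached endpoints set to highest concentration. GI50 marks 50% less growth.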 Activity calls are given as the source filed them. Cut-off read from the data, not from the text of the source: active = GI50 up to about 1.1 µM and inactive = higher.

Columns and labels:
Assay in all cases: NCI anticancer screen, dose series, 48 h
T47D = system: T47D
OVCAR-5 = system: OVCAR-5
PC-3 = system: PC-3
UACC-62 = system: UACC-62
SK-MEL-5 = system: SK-MEL-5
KM12 = system: KM12
SK-MEL-28 = system: SK-MEL-28
HOP-62 = system: HOP-62
A549 = system: A549
HOP-92 = system: HOP-92
DU-145 = system: DU-145
ACHN = system: ACHN
786-0 = system: 786-0
NCI-H23 = system: NCI-H23
IGROV-1 = system: IGROV-1
NCI-H226 = system: NCI-H226
U-251 = system: U-251
K562 = system: K562
RXF 393 = system: RXF 393
Malme-3M = system: Malme-3M

SMILES | GI50 (T47D) | GI50 (OVCAR-5) | GI50 (PC-3) | GI50 (UACC-62) | GI50 (SK-MEL-5) | GI50 (KM12) | GI50 (SK-MEL-28) | GI50 (HOP-62) | GI50 (A549) | GI50 (HOP-92) | GI50 (DU-145) | GI50 (ACHN) | GI50 (786-0) | GI50 (NCI-H23) | GI50 (IGROV-1) | GI50 (NCI-H226) | GI50 (U-251) | GI50 (K562) | GI50 (RXF 393) | GI50 (Malme-3M)
CC1=CC(=O)/C(=C/Nc2nc(-c3cccc([N+](=O)[O-])c3)cs2)C(=O)O1 | 77.1 µM (inactive) | > 100 µM (inactive) | > 100 µM (inactive) | 32.5 µM (inactive) | 54.2 µM (inactive) | 47.2 µM (inactive) | > 100 µM (inactive) | > 100 µM (inactive) | > 100 µM (inactive) | > 100 µM (inactive) | > 100 µM (inactive) | 46.2 µM (inactive) | 30.8 µM (inactive) | 60.5 µM (inactive) | 38.4 µM (inactive) | > 100 µM (inactive) | 63.1 µM (inactive) |  |  | 
C=CCOc1ccccc1C1(O)c2ccccc2C2=NCCCN21 (stereo not drawn) | > 100 µM (inactive) | 32.3 µM (inactive) | 20.7 µM (inactive) | 40.9 µM (inactive) | 25.6 µM (inactive) | 32.4 µM (inactive) | 20.4 µM (inactive) | 18.9 µM (inactive) | > 100 µM (inactive) | 56.9 µM (inactive) | 57.9 µM (inactive) | 37.8 µM (inactive) | 47.3 µM (inactive) | 30.8 µM (inactive) | 16.8 µM (inactive) | 31.8 µM (inactive) | 46.5 µM (inactive) | 45.3 µM (inactive) |  | 
CCOC(=O)C1(C(=O)OCC)CCCN1C(=O)[C@H](CNC(=O)OC(C)(C)C)NC(=O)OCc1ccccc1 | > 100 µM (inactive) | > 100 µM (inactive) | > 100 µM (inactive) |  | > 100 µM (inactive) | > 100 µM (inactive) | > 100 µM (inactive) | > 100 µM (inactive) | > 100 µM (inactive) |  | > 100 µM (inactive) | > 100 µM (inactive) | > 100 µM (inactive) | > 100 µM (inactive) | > 100 µM (inactive) | > 100 µM (inactive) | > 100 µM (inactive) | 32.8 µM (inactive) | > 100 µM (inactive) | 
CC1=CCC(C(C)(C)NC(=O)c2ccccc2)C/C1=N/O (stereo not drawn) | > 100 µM (inactive) | > 100 µM (inactive) | > 100 µM (inactive) | > 100 µM (inactive) | > 100 µM (inactive) | > 100 µM (inactive) | > 100 µM (inactive) | > 100 µM (inactive) | > 100 µM (inactive) | 43.3 µM (inactive) | > 100 µM (inactive) |  | > 100 µM (inactive) | > 100 µM (inactive) | > 100 µM (inactive) |  | > 100 µM (inactive) | > 100 µM (inactive) |  | 
CC(=O)c1sc(=N)n(-c2c(C)cccc2C)c1C | > 100 µM (inactive) | > 100 µM (inactive) | > 100 µM (inactive) | > 100 µM (inactive) | > 100 µM (inactive) | > 100 µM (inactive) | > 100 µM (inactive) | > 100 µM (inactive) | > 100 µM (inactive) |  | > 100 µM (inactive) | > 100 µM (inactive) | > 100 µM (inactive) | > 100 µM (inactive) | > 100 µM (inactive) | > 100 µM (inactive) | > 100 µM (inactive) | > 100 µM (inactive) | > 100 µM (inactive) | > 100 µM (inactive)
O=C(/N=N/c1ccc([N+](=O)[O-])cc1)NNc1ccc([N+](=O)[O-])cc1 | 9.14 µM (inactive) | 14.5 µM (inactive) | 9.62 µM (inactive) | 10.3 µM (inactive) | 13.9 µM (inactive) |  | 16.4 µM (inactive) | 13.3 µM (inactive) | 26 µM (inactive) |  | 5.74 µM (inactive) | 13.5 µM (inactive) | 13.7 µM (inactive) | 15.5 µM (inactive) | 12.8 µM (inactive) | 19.5 µM (inactive) | 18.9 µM (inactive) | 11.4 µM (inactive) |  | 19 µM (inactive)
CCOc1ccc(N/C(=C(/C(Cl)=C(/Cl)NCCO)[N+](=O)[O-])n2nnc3ccccc32)cc1 | 18.2 µM (inactive) | 35.6 µM (inactive) | 25.7 µM (inactive) | 21.9 µM (inactive) |  | 24.8 µM (inactive) | 18.7 µM (inactive) | 66.7 µM (inactive) | 44 µM (inactive) |  | 12.9 µM (inactive) | 19.5 µM (inactive) | 29.6 µM (inactive) | 17.5 µM (inactive) |  | > 100 µM (inactive) | 21.8 µM (inactive) | 20.8 µM (inactive) | 16.2 µM (inactive) | 18.4 µM (inactive)
CC(=O)[C@]12OC(=O)C3=C1[C@H](CC[C@@H]3C)[C@@H](C)C[C@H]2C=C(C)C | 6.44 µM (inactive) | 8.11 µM (inactive) | 9.2 µM (inactive) | 5.68 µM (inactive) | 5.52 µM (inactive) | 7.62 µM (inactive) |  | 8.61 µM (inactive) | 7.48 µM (inactive) | 1.43 µM (inactive) | 8.09 µM (inactive) | 8.11 µM (inactive) | 8.55 µM (inactive) | 9.14 µM (inactive) | 7.35 µM (inactive) | 8.28 µM (inactive) | 7.8 µM (inactive) | 5.6 µM (inactive) |  | 
CSc1ncnc2c1cnn2Cc1cn(COCC(O)CO)nn1 (stereo not drawn) | > 100 µM (inactive) | > 100 µM (inactive) | > 100 µM (inactive) | > 100 µM (inactive) | > 100 µM (inactive) | > 100 µM (inactive) | > 100 µM (inactive) | > 100 µM (inactive) | > 100 µM (inactive) | > 100 µM (inactive) | > 100 µM (inactive) | > 100 µM (inactive) | > 100 µM (inactive) | > 100 µM (inactive) | > 100 µM (inactive) | > 100 µM (inactive) | > 100 µM (inactive) |  |  | 
Nc1nc(-c2ccccc2)nc2c1[n+]([O-])c1ccccc1[n+]2[O-] | > 100 µM (inactive) | > 100 µM (inactive) | > 100 µM (inactive) | > 100 µM (inactive) | 83.4 µM (inactive) | > 100 µM (inactive) | > 100 µM (inactive) | > 100 µM (inactive) | > 100 µM (inactive) |  | > 100 µM (inactive) | > 100 µM (inactive) | > 100 µM (inactive) | > 100 µM (inactive) | > 100 µM (inactive) | > 100 µM (inactive) | > 100 µM (inactive) | > 100 µM (inactive) | > 100 µM (inactive) | > 100 µM (inactive)
O=c1[nH]c(=O)n([C@@H]2O[C@H](CO)[C@@H](O)[C@H]2O)cc1F [5-FLUOROURIDINE] | 0.114 µM (active) | 0.718 µM (active) | 0.164 µM (active) | 0.169 µM (active) | 0.344 µM (active) | 0.0671 µM (active) | 0.805 µM (active) | 0.171 µM (active) | 0.0179 µM (active) |  | 0.151 µM (active) | 0.0307 µM (active) | 0.0408 µM (active) | 0.229 µM (active) | 0.0803 µM (active) | 0.154 µM (active) | 0.0462 µM (active) | 0.0212 µM (active) | 0.221 µM (active) | 0.0678 µM (active)
